Assay results reported in ChEMBL document CHEMBL1201862, “PubChem BioAssay data set” (2004).
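Five compound concentrations were applied to cells in 96-well plates for 48 hours; endpoints were derived by simple linear interpolation of the resulting dose-response curve. At the GI50, growth is halved.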 Activity calls are given as the source filed them. Cut-off read from the data, not from the text of the source: active = GI50 up to about 1.1 µM and inactive = higher.

Experiments:
Experiment in all cases: growth of human tumour cells (NCI), 48 h
CAKI-1 = system: CAKI-1
OVCAR-3 = system: OVCAR-3
HCC 2998 = system: HCC 2998
SR = system: SR
UO-31 = system: UO-31
RPMI-8226 = system: RPMI-8226
BT-549 = system: BT-549
HT-29 = system: HT-29
OVCAR-4 = system: OVCAR-4
U-251 = system: U-251
OVCAR-8 = system: OVCAR-8
UACC-257 = system: UACC-257
MDA-MB-231 = system: MDA-MB-231
OVCAR-5 = system: OVCAR-5
DU-145 = system: DU-145
SK-MEL-5 = system: SK-MEL-5
SK-MEL-28 = system: SK-MEL-28
UACC-62 = system: UACC-62
HOP-92 = system: HOP-92
SF-539 = system: SF-539

Measured: GI50

O=C(N/N=C1\CCc2ccccc2C1)N/N=C1\CCc2ccccc2C1
inactive: CAKI-1 > 10 µM | OVCAR-3 > 10 µM | HCC 2998 > 10 µM | SR > 10 µM | UO-31 > 10 µM | RPMI-8226 > 10 µM | BT-549 > 10 µM | HT-29 > 10 µM | OVCAR-4 > 10 µM | U-251 > 10 µM | OVCAR-8 > 10 µM | UACC-257 > 10 µM | MDA-MB-231 > 10 µM | OVCAR-5 > 10 µM | DU-145 > 10 µM

CC1OC(OC2C(O[C@H]3CC[C@@H]4C(=CC[C@@H]5[C@@]4(C)C(=O)C[C@]4(C)[C@@H]([C@H](C)CC[C@@H](O)C(C)(C)O)CC[C@@]54C)C3(C)C)OC(CO)C(O)C2O)C(O)C(O)C1O (stereo not given in full)
inactive: CAKI-1 > 100 µM | SK-MEL-5 > 100 µM | OVCAR-3 > 100 µM | SK-MEL-28 > 100 µM | HCC 2998 > 100 µM | UO-31 > 100 µM | BT-549 > 100 µM | UACC-62 > 100 µM | HT-29 > 100 µM | OVCAR-4 > 100 µM | HOP-92 > 100 µM | U-251 > 100 µM | SF-539 > 100 µM | OVCAR-8 > 100 µM | UACC-257 > 100 µM | MDA-MB-231 > 100 µM | OVCAR-5 > 100 µM | DU-145 > 100 µM

Cc1cc2[nH]c3c(C#N)c(-c4ccccc4)c(/N=N/c4ccc(F)cc4)c(=O)n3c2cc1C
inactive: CAKI-1 > 100 µM | SK-MEL-5 9.55 µM | OVCAR-3 3.21 µM | SK-MEL-28 > 100 µM | HCC 2998 > 100 µM | UO-31 > 100 µM | RPMI-8226 > 100 µM | BT-549 > 100 µM | OVCAR-4 91 µM | U-251 42.5 µM | SF-539 > 100 µM | UACC-257 > 100 µM | MDA-MB-231 > 100 µM | OVCAR-5 > 100 µM

Nc1ccc([As](=O)(O)O)cc1 [ARSANILIC ACID]
inactive: CAKI-1 > 100 µM | SK-MEL-5 > 100 µM | OVCAR-3 > 100 µM | SK-MEL-28 > 100 µM | HCC 2998 > 100 µM | SR > 100 µM | UO-31 > 100 µM | BT-549 > 100 µM | UACC-62 > 100 µM | HT-29 > 100 µM | OVCAR-4 > 100 µM | HOP-92 > 100 µM | U-251 > 100 µM | SF-539 > 100 µM | OVCAR-8 > 100 µM | UACC-257 > 100 µM | MDA-MB-231 > 100 µM | OVCAR-5 > 100 µM | DU-145 > 100 µM

CC1(C)CO[P@@](=S)(c2ccccn2)O[C@@H]1c1ccccc1
inactive: CAKI-1 > 100 µM | SK-MEL-5 95.1 µM | OVCAR-3 18.7 µM | SK-MEL-28 > 100 µM | HCC 2998 > 100 µM | SR 39.4 µM | UO-31 82.6 µM | BT-549 > 100 µM | UACC-62 > 100 µM | HT-29 > 100 µM | OVCAR-4 73.6 µM | HOP-92 > 100 µM | U-251 > 100 µM | OVCAR-8 > 100 µM | UACC-257 > 100 µM | MDA-MB-231 > 100 µM | OVCAR-5 > 100 µM | DU-145 > 100 µM

CCCCNC(=O)C1=C(C)NC(C)=C(C(=O)NCCCC)C1
inactive: CAKI-1 > 100 µM | SK-MEL-5 89.7 µM | OVCAR-3 > 100 µM | SK-MEL-28 > 100 µM | HCC 2998 > 100 µM | UO-31 > 100 µM | BT-549 > 100 µM | UACC-62 > 100 µM | HT-29 > 100 µM | OVCAR-4 > 100 µM | HOP-92 > 100 µM | U-251 > 100 µM | SF-539 > 100 µM | OVCAR-8 > 100 µM | UACC-257 > 100 µM | MDA-MB-231 > 100 µM | OVCAR-5 > 100 µM | DU-145 > 100 µM

Cc1ccc2c(c1)S(=O)(=O)c1ccc3ccccc3c1N2
inactive: CAKI-1 > 100 µM | SK-MEL-5 > 100 µM | OVCAR-3 > 100 µM | SK-MEL-28 > 100 µM | HCC 2998 > 100 µM | SR 15.4 µM | UO-31 > 100 µM | BT-549 > 100 µM | UACC-62 > 100 µM | HT-29 > 100 µM | OVCAR-4 > 100 µM | HOP-92 > 100 µM | U-251 > 100 µM | SF-539 > 100 µM | OVCAR-8 > 100 µM | UACC-257 > 100 µM | MDA-MB-231 > 100 µM | OVCAR-5 > 100 µM | DU-145 > 100 µM

COc1cc(CCCOC(=O)/C=C/c2ccc(O)c(O)c2)cc(O)c1O
inactive: CAKI-1 58.3 µM | SK-MEL-5 31.2 µM | OVCAR-3 42.1 µM | SK-MEL-28 58.3 µM | HCC 2998 > 100 µM | SR 43.6 µM | UO-31 37.5 µM | RPMI-8226 27.4 µM | BT-549 30.7 µM | UACC-62 27.9 µM | HT-29 31.6 µM | OVCAR-4 40 µM | U-251 36.8 µM | SF-539 28.4 µM | OVCAR-8 70.8 µM | UACC-257 > 100 µM | MDA-MB-231 28.8 µM | OVCAR-5 > 100 µM | DU-145 > 100 µM
